# Data from patent publication US9796716B2, “Selective inhibitors of Tec and Src protein kinase families” (Pharmascience, Inc., priority 2012, dated 2017).
# Legend:
# [1] = molecular target: recombinant human full-length Bruton Agammaglobulinemia Tyrosine Kinase (Btk) (Homo sapiens (Human), UniProt Q06187); test: Btk Kinase Inhibition Assay (fluorescence polarization); assay type: biochemical; conditions: 10 μM ATP, 250 μM substrate, 60 minutes; Ki calculated from IC50 using the Cheng-Prusoff equation
# Method: Kinase Binding Btk Kinase Inhibition Assay
# Fluorescence polarization-based kinase assays were performed in 384 well-plate format using histidine tagged recombinant human full-length Bruton Agammaglobulinemia Tyrosine Kinase (Btk) and a modified protocol of the KinEASE™ FP Fluorescein Green Assay supplied from Millipore. Kinase reaction were performed at room temperature for 60 minutes in presence of 250 μM substrate, 10 μM ATP and variable test article concentrations. The reaction was stopped with EDTA/kinase detection reagents and the polarization measured on a Tecan 500 instrument. From the dose-response curve obtained, the IC50 was calculated using Graph Pad Prisms® using a non linear fit curve. The Km for ATP on each enzyme was experimentally determined and the Ki values calculated using the Cheng-Prusoff equation (see: Cheng Y, Prusoff W H. (1973) Relationship between the inhibition constant (K1) and the concentration of inhibitor which causes 50 percent inhibition (I50) of an enzymatic reaction”. Biochem Pharmacol 22 (23): 3099-108).
# [2] = test system: Splenocytes (B cell proliferation stimulated with anti-IgM F(ab′)2); test: Splenic Cell Proliferation Assay; assay type: cell-based; conditions: Mus musculus, Splenocyte, 72 h, CD1 mouse splenocytes, 2.5 ug/ml anti-IgM F(ab′)2 for 72 h, Cell Titer-Glo; read-out: EC50 (nM), Inhibition of splenic cell proliferation
# Method: Splenic Cell Proliferation Assay
# Splenocytes were obtained from 6 week old male CD1 mice (Charles River Laboratories Inc.). Mouse spleens were manually disrupted in PBS and filtered using a 70 um cell strainer followed by ammonium chloride red blood cell lysis. Cells were washed, resuspended in Splenocyte Medium (HyClone RPMI supplemented with 10% heat-inactivated FBS, 0.5× non-essential amino acids, 10 mM HEPES, 50 uM beta mercaptoethanol) and incubated at 37° C., 5% CO2 for 2 h to remove adherent cells. Suspension cells were seeded in 96 well plates at 50,000 cells per well and incubated at 37° C., 5% CO2 for 1 h. Splenocytes were pre-treated in triplicate with 10,000 nM curves of Formula 1 compounds for 1 h, followed by stimulation of B cell proliferation with 2.5 ug/ml anti-IgM F(ab′)2 (Jackson ImmunoResearch) for 72 h. Cell proliferation was measured by Cell Titer-Glo Luminescent Assay (Promega). EC50 values (50% proliferation in the presence of compound as compared to vehicle treated controls) were calculated from dose response compound curves using GraphPad Prism Software.
# Sequence of recombinant human full-length Bruton Agammaglobulinemia Tyrosine Kinase (Btk) (Q06187 whole entry): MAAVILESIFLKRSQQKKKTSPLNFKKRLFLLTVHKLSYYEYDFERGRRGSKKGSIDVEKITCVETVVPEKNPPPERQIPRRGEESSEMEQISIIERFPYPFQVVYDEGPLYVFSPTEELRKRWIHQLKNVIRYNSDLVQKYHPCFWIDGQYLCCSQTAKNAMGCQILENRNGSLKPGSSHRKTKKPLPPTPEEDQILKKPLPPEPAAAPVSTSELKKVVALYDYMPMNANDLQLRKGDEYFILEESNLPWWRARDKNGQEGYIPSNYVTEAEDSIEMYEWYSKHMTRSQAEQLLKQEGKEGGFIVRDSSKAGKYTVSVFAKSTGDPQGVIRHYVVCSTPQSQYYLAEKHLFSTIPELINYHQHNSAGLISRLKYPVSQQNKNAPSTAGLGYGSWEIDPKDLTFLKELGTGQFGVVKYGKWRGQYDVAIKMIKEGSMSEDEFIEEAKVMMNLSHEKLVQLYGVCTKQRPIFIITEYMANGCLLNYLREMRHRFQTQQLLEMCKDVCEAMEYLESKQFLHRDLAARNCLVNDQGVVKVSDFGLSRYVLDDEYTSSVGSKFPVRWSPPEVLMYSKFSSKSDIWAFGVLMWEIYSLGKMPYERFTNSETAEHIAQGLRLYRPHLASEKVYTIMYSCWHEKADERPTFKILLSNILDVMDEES
SMILES,Ki [1] [nM],EC50 [2] [nM]
CC(C)(C)OC(=O)N1CCCC(n2nc(-c3ccc(Oc4cccc(OCc5cncs5)c4)cc3)c3c(N)ncnc32)C1 (stereo not shown) [Compound 49],< 100,< 100
Nc1ncnc2c1c(-c1ccc(Oc3cc(F)cc(OCc4cncn4C4CCCC4)c3)cc1)nn2C1CCOCC1 [Compound 77],< 100,< 100
Cn1nc(-c2ccc(Oc3cccc(OCc4ccccc4C#N)c3)cc2)c2c(N)ncnc21 [Compound 30],< 100,< 100
Cc1ncc(COc2cc(F)cc(Oc3ccc(-c4nn(C[C@@H]5CCCN5)c5ncnc(N)c45)cc3)c2)s1 [Compound 56],,100 to 1000
Nc1ncnc2c1c(-c1ccc(Oc3cc(F)cc(OCc4cnccn4)c3)cc1)nn2C1CCOCC1 [Compound 69],< 100,< 100
Cc1ncc(COc2cc(F)cc(Oc3ccc(-c4nn(CC(C)(C)O)c5ncnc(N)c45)cc3)c2)n1C [Compound 121],< 100,100 to 1000
Cc1ncc(COc2cc(F)cc(Oc3ccc(-c4nn(C(C)(C)C)c5ncnc(N)c45)cc3)c2)cn1 [Compound 129],< 100,< 100
Nc1ncnc2c1c(-c1ccc(Oc3cccc(OCc4cncs4)c3)cc1)nn2C1CCCNC1 (stereo not shown) [Compound 51],< 100,< 100
COCCn1cncc1COc1cc(F)cc(Oc2ccc(-c3nn(C4CCOCC4)c4ncnc(N)c34)cc2)c1 [Compound 83],< 100,100 to 1000
Cn1cncc1COc1cc(F)cc(Oc2ccc(-c3nn(CC(C)(C)O)c4ncnc(N)c34)cc2)c1 [Compound 112],< 100,100 to 1000
CC(=O)N1CCC[C@@H](n2nc(-c3ccc(Oc4cccc(OCc5ccccc5)c4)cc3)c3c(N)ncnc32)C1 [Compound 6],< 100,< 100
Nc1ncnc2c1c(-c1ccc(Oc3cccc(COc4ccccc4)c3)cc1)nn2C1CCCC1 [Compound 13],< 100,< 100
Cc1ncc(COc2cc(F)cc(Oc3ccc(-c4nn(CCN5CCOCC5)c5ncnc(N)c45)cc3)c2)s1 [Compound 52],< 100,< 100
Nc1ncnc2c1c(-c1ccc(Oc3cccc(COc4ccccc4C(F)(F)F)c3)cc1)nn2C1CCCC1 [Compound 32],< 100,< 100
Cc1ncc(COc2cc(F)cc(Oc3ccc(-c4nn(CC5(C)COC5)c5ncnc(N)c45)cc3)c2)n1C [Compound 124],< 100,100 to 1000
Cc1ncc(COc2cc(F)cc(Oc3ccc(-c4nn(C(C)(C)C)c5ncnc(N)c45)cc3)c2)s1 [Compound 127],< 100,< 100
CC(C)(C)OC(=O)N1CCC[C@@H](n2nc(-c3ccc(Oc4cccc(OCc5ccccc5)c4)cc3)c3c(N)ncnc32)C1 [Compound 3],< 100,100 to 1000
Nc1ncnc2c1c(-c1ccc(Oc3cccc(OCc4cncs4)c3)cc1)nn2CCc1ccccc1 [Compound 42],< 100,< 100
Cc1ccc(COc2cc(F)cc(Oc3ccc(-c4nn(CC(C)(C)O)c5ncnc(N)c45)cc3)c2)cn1 [Compound 111],< 100,100 to 1000
Cc1ccc(COc2cc(F)cc(Oc3ccc(-c4nn(CCCO)c5ncnc(N)c45)cc3)c2)cn1 [Compound 96],< 100,< 100
Cn1cncc1COc1cc(F)cc(Oc2ccc(-c3nn(C4CCOCC4)c4ncnc(N)c34)cc2F)c1 [Compound 72],< 100,100 to 1000
N#Cc1ccccc1COc1cccc(Oc2ccc(-c3nn(C4CCCC4)c4ncnc(N)c34)cc2)c1 [Compound 12],< 100,100 to 1000
Cc1ncc(COc2cc(F)cc(Oc3ccc(-c4nn(CCCO)c5ncnc(N)c45)cc3)c2)s1 [Compound 104],< 100,< 100
Nc1ncnc2c1c(-c1ccc(Oc3cc(F)cc(CCc4ccccc4)c3)cc1)nn2C1CCOCC1 [Compound 66],< 100,100 to 1000
Cc1ncc(COc2cccc(Oc3ccc(-c4nn(C5CCOCC5)c5ncnc(N)c45)c(F)c3)c2)s1 [Compound 70],< 100,< 100
Nc1ncnc2c1c(-c1ccc(Oc3cccc(OCc4cncs4)c3)cc1)nn2CCN1CCCC1 [Compound 39],< 100,100 to 1000

SMILES,Ki [1] [nM],EC50 [2] [nM]
Cc1ncc(COc2cc(F)cc(Oc3ccc(-c4nn(CC5(C)COC5)c5ncnc(N)c45)cc3)c2)cn1 [Compound 119],< 100,100 to 1000
Cc1ncc(COc2cc(F)cc(Oc3ccc(-c4nn(C5CCOCC5)c5ncnc(N)c45)c(F)c3)c2)s1 [Compound 60],< 100,< 100
Nc1ncnc2c1c(-c1ccc(Oc3cc(F)cc(OCc4cncn4Cc4ccccc4)c3)cc1)nn2C1CCOCC1 [Compound 76],< 100,100 to 1000
Nc1ncnc2c1c(-c1ccc(Oc3cccc(OCc4cncs4)c3)cc1)nn2CCN1CCOCC1 [Compound 44],< 100,< 100
Cc1ncc(COc2cc(F)cc(Oc3ccc(-c4nn(CCCN5CCOCC5)c5ncnc(N)c45)cc3)c2)s1 [Compound 55],< 100,< 100
Nc1ncnc2c1c(-c1ccc(Oc3cccc(OCc4cncs4)c3)cc1)nn2CCc1ccncc1 [Compound 41],< 100,100 to 1000
[2H]C([2H])(Oc1cc(F)cc(Oc2ccc(-c3nn(C4CCOCC4)c4ncnc(N)c34)cc2)c1)c1ccc(C)nc1 [Compound 94],,< 100
Cn1nc(-c2ccc(Oc3cccc(OCc4ccccc4)c3)cc2)c2c(N)ncnc21 [Compound 16],< 100,100 to 1000
Cn1cncc1COc1cc(F)cc(Oc2ccc(-c3nn(C4CCOCC4)c4ncnc(N)c34)c(F)c2)c1 [Compound 73],< 100,< 100
CC(=O)N1CCC[C@@H](n2nc(-c3ccc(Oc4cccc(OCc5ccccc5C(F)(F)F)c4)cc3)c3c(N)ncnc32)C1 [Compound 26],< 100,< 100
Cc1ncc(COc2cc(F)cc(Oc3ccc(-c4nn(C5CCCC5)c5ncnc(N)c45)cc3)c2)n1C [Compound 120],< 100,< 100
Nc1ncnc2c1c(-c1ccc(Oc3cc(F)cc(OCc4cncn4CCO)c3)cc1)nn2C1CCOCC1 [Compound 99],< 100,100 to 1000
CC(=O)N1CCC[C@@H](n2nc(-c3ccc(Oc4cccc(COc5ccccc5C(F)(F)F)c4)cc3)c3c(N)ncnc32)C1 [Compound 33],< 100,< 100
[2H]C([2H])(Oc1cc(F)cc(Oc2ccc(-c3nn(C4CCOCC4)c4ncnc(N)c34)c(F)c2)c1)c1cncn1C [Compound 89],,< 100
Nc1ncnc2c1c(-c1ccc(Oc3cccc(COc4ccccc4C(F)(F)F)c3)cc1)nn2C1CCOCC1 [Compound 36],< 100,< 100
Cn1nc(-c2ccc(Oc3cccc(OCc4cncs4)c3)cc2)c2c(N)ncnc21 [Compound 19],< 100,100 to 1000
CN(C)CCn1nc(-c2ccc(Oc3cccc(OCc4cncs4)c3)cc2)c2c(N)ncnc21 [Compound 34],< 100,100 to 1000
COc1cccc(COc2cccc(Oc3ccc(-c4nn(C5CCCC5)c5ncnc(N)c45)cc3)c2)c1 [Compound 10],< 100,100 to 1000
CC(=O)N1CCC(n2nc(-c3ccc(Oc4cccc(OCc5cncs5)c4)cc3)c3c(N)ncnc32)CC1 [Compound 47],< 100,< 100
Nc1ncnc2c1c(-c1ccc(Oc3cccc(OCc4ccccc4C(F)(F)F)c3)cc1)nn2C1CCCC1 [Compound 29],< 100,< 100
Cn1cncc1CCc1cc(F)cc(Oc2ccc(-c3nn(C4CCOCC4)c4ncnc(N)c34)cc2)c1 [Compound 67],< 100,100 to 1000
Cc1ncc(COc2cc(F)cc(Oc3ccc(-c4nn(C5CCOCC5)c5ncnc(N)c45)cc3)c2)[nH]1 [Compound 118],< 100,100 to 1000
Cn1nc(-c2ccc(Oc3cccc(COc4ccccc4C(F)(F)F)c3)cc2)c2c(N)ncnc21 [Compound 31],< 100,100 to 1000
[2H]C([2H])(Oc1cc(F)cc(Oc2ccc(-c3nn(C4CCOCC4)c4ncnc(N)c34)cc2)c1)c1cnc(C)s1 [Compound 64],< 100,< 100
Nc1ncnc2c1c(-c1ccc(Oc3cccc(OCc4cncs4)c3)cc1)nn2C1CCNCC1 [Compound 43],< 100,100 to 1000
CC(=O)n1nc(-c2ccc(Oc3cccc(OCc4ccccc4)c3)cc2)c2c(N)ncnc21 [Compound 45],,100 to 1000
